Results reported in PubChem BioAssay AID652113 (The Scripps Research Institute Molecular Screening Center, 2013).

Tested on: PAMPA artificial membrane permeability, LC-MS, 5 h
Experiment: PubChem AID 652113
Conditions: active compounds read high

A permeability of 16.5 ×10⁻⁶ cm/s was found for COC(=O)c1cc(Br)cnc1N1CCC(NC2CCCCC2)C(O)C1 (stereo unspecified) in this work.
